Measurements from publication PMC11945201, “Enhancing the Oral Bioavailability of Glutathione Using Innovative Analogue Approaches” (Pharmaceutics, 2025).

Assays:
[1] = test system: glutathione reductase (GR) and glutathione peroxidase (GPx); test: Glutathione reductase and glutathione peroxidase coupled assay (NADPH, 340 nm); type: biochemical, yeast (GR), bovine (GPx); conditions: for GT/GPx Activity > 50%: yes/no, more than 50% considered retaining GR and GPx activity
Procedure: The activity of GR can be measured by monitoring the rate of decrease in absorbance of its substrate, NADPH, which absorbs light of 340 nm in the presence of a second substrate, i.e., oxidised GSH. […] In the presence of peroxides, reduced GSH can be oxidised by the enzyme GPx while reducing the peroxide. […] The NADPH solution (10 μL, 5 mmolL^−1), GPx enzyme solution (10 μL, 0.25 UmL^−1), and GR enzyme solution (10 μL, 10 UmL^−1) were also added to the reaction mixture. The reaction was initiated by the addition of tBu-OOH (2 μL, 30 mmolL^−1), and the decrease in absorbance at 340 nm was recorded by a microplate reader every 10 secs for one minute. […] A GR and GPx activity more than 50% was considered as retaining GR and GPx activity.

[2] = test system: Caco-2, Fibroblast, and HT29-MTX-E12 cells; test: Cytotoxicity by MTT cell viability; type: cell-based; conditions: for IC50: Homo sapiens, 24 h incubation, cell line not split in table (Caco-2, Fibroblast, HT29-MTX-E12), highest usable concentration 3.25 mmolL^−1
Procedure: All cell culture studies were conducted in aseptic conditions. Incubation was maintained at an atmosphere of 37.0 °C, 5% CO2, and 95% relative humidity. The caco-2 cells were grown in complete Dulbecco’s modified Eagle’s medium (DMEM), which was prepared by adding 10% foetal bovine serum (FBS), 1% penicillin-streptomycin (P-S), and 1% non-essential amino acids (NEAA) to sterile DMEM. Cells were cultured in T-25 and T-75 tissue culture flasks, and the medium was exchanged every 3 days until 90% confluence was reached. Cells were detached and subcultured with 0.25% Trypsin-EDTA. The suspended cell concentration was determined by cell counting.
Cytotoxicity was measured by measuring cell viability using MTT. Then, 90% confluent cells were detached by 0.25% trypsin-EDTA, which were then counted and seeded into sterile 96-well plates. Caco-2 cells were seeded into 96-well plates at a density of 100,000 cells per well and incubated for 24 h prior to the experiment. Fibroblast cells were seeded into 96-well plates at a density of 10,000 cells per well and incubated for 24 h prior to the experiment. HT-29 cells were seeded into 96-well plates at a density of 10,000 cells per well and incubated for 24 h prior to the experiment. The supernatant in each well were discarded and the attached cells were washed using serum-free Fluorobite^TM DMEM twice to remove any phenol red. The peptide, at concentrations of 10 mgmL^−1, 1 mgmL^−1, 0.1 mgmL^−1, 0.01 mgmL^−1, 0.001 mgmL^−1, and 0.0001 mgmL^−1 were dissolved in serum-free Fluorobite^TM DMEM. The total volume of sample in each well used was 100 μL. The cells were incubated with the peptide for 24 h. Cells were also incubated with serum-free DMEM (positive control) and 2% Triton-X (negative control) for 24 h. The supernatant in each well was then discarded and washed using serum-free Fluorobite^TM DMEM. MTT (100 μL, 1.2 mmolL^−1) dissolved in Fluorobite^TM DMEM was then added to each well and incubated for 2 h for MTT conversion into formazan. The supernatant was then discarded, and the cells were washed using Fluorobite^TM DMEM to remove any residual MTT and formazan that were not attached to cellular mitochondria. Formazan was dissolved in dimethyl sulfoxide (DMSO) (50 μL), and the absorbance was measured on a microplate reader at a wavelength of 570 nm. Cell viability was expressed as a percentage of the positive control and calculated as follows (where Aexp is the absorbance at 570 nm of the experimental group, Aneg is the absorbance at 570 nm of the negative control, and Acon is the cell viability of the positive control): Cell viability = (Aexp − Aneg)/(Acon − Aneg).

Fibroblast cells = test: UV rescue of UVA-irradiated fibroblast cells (MTT); type: cell-based; conditions: for % Cell Viability (with UV): UVA 1 h, then peptide 0.0325 mmolL^−1, 24 h
Procedure: Fibroblast cells were seeded into 96-well plates at a density of 10,000 cells per well determined by cell counting. Cells were allowed to settle and attach for 24 h before the addition of peptides. The supernatant in each well was discarded, and the attached cells were washed using serum-free DMEM twice. One group of cells was exposed to UVA under a UV lamp for 1 h. A second group of cells was not exposed to UV irradiation. The supernatant was removed from each well of both groups and replaced with peptide (100 μL, 0.0325 mmolL^−1), which was then dissolved in Fluorobite^TM DMEM. Each plate, including 2 wells of both groups was also incubated with serum-free DMEM (positive control) and 2% Triton-X (negative control) for 24 h. The supernatant in each well of both groups was then discarded and the cells washed using PBS. MTT (100 μL, 6 mmolL^−1) that was dissolved in HBSS was then added to each well and incubated for 2 h for MTT conversion into formazan. The supernatant was then discarded, and the cells were washed using PBS to remove any residual MTT and formazan that were not attached to the cellular mitochondria. Formazan was dissolved in DMSO (50 μL), and the absorbance was measured on a microplate reader at a wavelength of 570 nm.

Structure (SMILES) | activity with GPx and GR enzymes (in words) ([1]; qualitative analysis) | GT/GPx Activity > 50% [1] | IC50 [2] [mM] | cytotoxicity (in words) ([2]; up to 3.25 mmolL^−1) | cell viability versus untreated groups (in words) (Fibroblast cells; UV rescue) | % Cell Viability (with UV) (Fibroblast cells; mean ± SD, n = 6) [%] | % Cell Viability (no UV) (Fibroblast cells; peptide 0.0325 mmolL^−1, 24 h, no UV, mean ± SD, n = 6) [%]
CN(C(=O)CC[C@H](N)C(=O)O)[C@@H](CS)C(=O)NCC(=O)O [Compound 1.70] | retention of activity | ✔ (✔: yes) | > 3.25 | no cytotoxicity detected | significantly higher cell viability than the untreated groups | 112.4 ± 9.7 | –
N[C@@H](CCC(=O)N[C@@H](CS)C(=O)NCC(=O)O)C(=O)O [GSH, Glutathione] | – | ✔ (✔: yes) | > 3.25 | – | – | 87.7 ± 4.5 | 100.0 ± 8.1
